Results as given in patent US11241441B2, “Formulations of lixivaptan for the treatment of polycystic disease” (PALLADIO BIOSCIENCES, INC., priority 2017, dated 2022).

Assays:
[1] = In-clinic pharmacokinetic study: adverse events, serum osmolality, urine output; format: in vivo, human
Protocol: Subjects received lixivaptan at total daily doses of 100 mg, 200 mg, or 400 mg (administered as 50, 100, and 200 mg Q12H). Subjects were to be enrolled into the study in two cohorts of 30 subjects, but actual cohort numbers were 23 and 34 subjects. Of the 57 subjects enrolled in the study, 27 were female (47.4%) and 30 were male (52.6%). The majority of subjects were White (35/57, 61.4%) and of Hispanic or Latino ethnicity (46/57, 80.7%). The overall mean age of subjects in the study was 33.6 (8.31) years, and the overall mean body mass index for subjects was 26.2 (3.79). There were to be approximately 20 subjects enrolled per dose level. An approximately equal number of males and females were enrolled at each dose level such that neither gender was represented by fewer than 8 subjects. The starting date for each cohort subjects was staggered by 7 days for logistical purposes. Screening evaluations were performed within 28 days prior to Day 1.
(§1) The following doses of lixivaptan were administered to subjects in this study: (a) Lixivaptan 100 mg, administered as 50 mg [1×50 mg capsule] every 12 hours×15 doses; (b) lixivaptan 200 mg, administered as 100 mg [2×50 mg capsules] every 12 hours×15 doses; and (c) Lixivaptan 400 mg, administered as 200 mg [4×50 mg capsules] every 12 hours×15 doses.
(§2) Prior to the morning doses of lixivaptan on Days 1 and 8, subjects fasted for approximately 10 hours prior to lixivaptan administration and 4 hours after lixivaptan administration. All other doses were administered under fasting conditions, either 2 hours before or 2 hours after meals. The study medication was administered with 240 milliliters (mL) room temperature water. Subjects were not to receive any oral fluids, other than those used to administer the dose, for 1 hour before and 1 hour after dose administration. Subjects remained sitting or semi-supine, except to void, for 6 hours following the first two doses. While in the clinic, the subjects refrained from strenuous physical activity.

vasopressin V2 receptor = molecular target: T1, vasopressin V2 receptor (Homo sapiens, UniProt P30518); assay: In-clinic pharmacokinetic study: spot urine osmolality after twice daily lixivaptan; format: in vivo
T1 construct: Lixivaptan antagonizes the effects of vasopressin that are mediated by the V2 receptor; from tissue; host or cells: living human subjects (in vivo clinical studies); the receptor is the subjects' own and no tissue was isolated
Protocol: Subjects received lixivaptan at total daily doses of 100 mg, 200 mg, or 400 mg (administered as 50, 100, and 200 mg Q12H). […] There were to be approximately 20 subjects enrolled per dose level. An approximately equal number of males and females were enrolled at each dose level such that neither gender was represented by fewer than 8 subjects. The starting date for each cohort subjects was staggered by 7 days for logistical purposes. Screening evaluations were performed within 28 days prior to Day 1.
as §1, §2
Spot urine collections for urine osmolality determinations were obtained during the clinic stay and at the end of study (EOS).
Spot urine osmolality was evaluated at different times during the day.

Measured Log P = format: physicochemical
V2 receptor [2] = molecular target: T2, V2 receptor (Homo sapiens, UniProt P30518); assay: Single 100 mg oral dose study in ESRD and normal renal function subjects: pharmacodynamics (urine osmolality, vasopressin, urine output); format: in vivo; parameters: Lixivaptan antagonizes the effects of vasopressin that are mediated by the V2 receptor; from tissue; host or cells: living human subjects (in vivo clinical studies); the receptor is the subjects' own and no tissue was isolated
Protocol: In this study, the PK of lixivaptan following a single 100 mg oral dose of lixivaptan was evaluated in subjects with end-stage renal disease (ESRD) and control subjects with normal renal function. Pharmacodynamic (PD) evaluations, including vasopressin concentration, serum sodium concentration, urine volume, and urine osmolality were assessed.

V2 receptor [3] = molecular target: T2, V2 receptor; assay: Ascending multiple-dose, safety and tolerance study in healthy adult male subjects
Protocol: Lixivaptan in healthy volunteers was tested in a randomized, double-blind, placebo-controlled, ascending multiple-dose, safety and tolerance clinical study in 98 healthy male subjects.

T2 sequence (P30518 whole entry): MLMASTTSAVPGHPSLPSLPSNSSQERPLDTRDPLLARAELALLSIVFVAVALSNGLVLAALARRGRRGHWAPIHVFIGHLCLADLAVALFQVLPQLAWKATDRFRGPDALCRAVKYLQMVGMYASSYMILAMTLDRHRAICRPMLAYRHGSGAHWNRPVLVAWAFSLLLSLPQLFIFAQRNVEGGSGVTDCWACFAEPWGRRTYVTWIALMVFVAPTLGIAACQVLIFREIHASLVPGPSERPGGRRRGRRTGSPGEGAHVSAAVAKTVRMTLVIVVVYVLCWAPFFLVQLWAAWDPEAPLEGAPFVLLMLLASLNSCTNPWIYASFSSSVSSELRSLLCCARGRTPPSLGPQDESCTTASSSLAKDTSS
T1 sequence (P30518 whole entry): as above

Cc1ccc(F)cc1C(=O)Nc1ccc(C(=O)N2Cc3cccn3Cc3ccccc32)c(Cl)c1 [Lixivaptan, 5-fluoro-2-methyl-N-[4-(5H-pyrrolo[2,1-C] [1,4]benzodiazepin-10(11H)-ylcarbonyl)-3-chlorophenyl]benzamide]
headache considered possibly or probably related to study drug ([1]; 100 mg group): 2 subject | headache considered possibly or probably related to study drug ([1]; 200 mg group): 1 subject | asthenia considered possibly or probably related to study drug ([1]; 400 mg group): 1 subject | headache considered possibly or probably related to study drug ([1]; 400 mg group): 1 subject | vomiting considered possibly or probably related to study drug ([1]; 400 mg group): 1 subject | urine output ([1]; Days 1-8): increased | serum osmolality ([1]; during the study, dose related): mildly increased | tolerability ([1]; healthy subjects, 50-200 mg Q12H for 7.5 days): well tolerated | treatment-emergent AE chest discomfort ([1]; of the 57 enrolled subjects): 2 subjects | treatment-emergent AE constipation ([1]; of the 57 enrolled subjects): 3 subjects | treatment-emergent AE headache ([1]; of the 57 enrolled subjects): 7 subjects | % of subjects with full 24 hour suppression of Uosm to 300 mOsm/kg or lower (vasopressin V2 receptor; 50 mg lixivaptan twice daily): approximately 16% | Urine Osmolality Mean (vasopressin V2 receptor; 100 mg as 50 mg Q12H, Day 1 Hour 1): 250.9 mOsm/kg | Urine Osmolality Mean (vasopressin V2 receptor; 100 mg as 50 mg Q12H, Day 1 Hour 2): 79.8 mOsm/kg | Urine Osmolality Mean (vasopressin V2 receptor; 100 mg as 50 mg Q12H, Day 1 Hour 4): 150.6 mOsm/kg | Urine Osmolality Mean (vasopressin V2 receptor; 100 mg as 50 mg Q12H, Day 1 Hour 12): 378.7 mOsm/kg | Urine Osmolality Mean (vasopressin V2 receptor; 100 mg as 50 mg Q12H, Day 8 Hour 0): 464.7 mOsm/kg | Urine Osmolality Mean (vasopressin V2 receptor; 100 mg as 50 mg Q12H, Day 8 Hour 1): 222.5 mOsm/kg | Urine Osmolality Mean (vasopressin V2 receptor; 100 mg as 50 mg Q12H, Day 8 Hour 2): 139.1 mOsm/kg | Urine Osmolality Mean (vasopressin V2 receptor; 100 mg as 50 mg Q12H, Day 8 Hour 4): 274.3 mOsm/kg | Urine Osmolality Mean (vasopressin V2 receptor; 100 mg as 50 mg Q12H, Day 8 Hour 12): 447.4 mOsm/kg | Urine Osmolality Mean (vasopressin V2 receptor; 100 mg as 50 mg Q12H, Day 9 Hour 24 after dosing): 564.7 mOsm/kg | Urine Osmolality Mean (vasopressin V2 receptor; 100 mg as 50 mg Q12H, EOS (end of study, Day 29)): 805.5 mOsm/kg | % of subjects with full 24 hour suppression of Uosm to 300 mOsm/kg or lower (vasopressin V2 receptor; 100 mg twice daily): approximately 46% | Urine Osmolality Mean (vasopressin V2 receptor; 200 mg as 100 mg Q12H, Day 1 Hour 1): 285.9 mOsm/kg | Urine Osmolality Mean (vasopressin V2 receptor; 200 mg as 100 mg Q12H, Day 1 Hour 2): 76.9 mOsm/kg | Urine Osmolality Mean (vasopressin V2 receptor; 200 mg as 100 mg Q12H, Day 1 Hour 4): 136.5 mOsm/kg | Urine Osmolality Mean (vasopressin V2 receptor; 200 mg as 100 mg Q12H, Day 1 Hour 12): 369.9 mOsm/kg | Urine Osmolality Mean (vasopressin V2 receptor; 200 mg as 100 mg Q12H, Day 8 Hour 0): 323.6 mOsm/kg | Urine Osmolality Mean (vasopressin V2 receptor; 200 mg as 100 mg Q12H, Day 8 Hour 1): 156.7 mOsm/kg | Urine Osmolality Mean (vasopressin V2 receptor; 200 mg as 100 mg Q12H, Day 8 Hour 2): 93.9 mOsm/kg | Urine Osmolality Mean (vasopressin V2 receptor; 200 mg as 100 mg Q12H, Day 8 Hour 4): 186.7 mOsm/kg | Urine Osmolality Mean (vasopressin V2 receptor; 200 mg as 100 mg Q12H, Day 8 Hour 12): 334.7 mOsm/kg | Urine Osmolality Mean (vasopressin V2 receptor; 200 mg as 100 mg Q12H, Day 9 Hour 24 after dosing): 465.9 mOsm/kg | Urine Osmolality Mean (vasopressin V2 receptor; 200 mg as 100 mg Q12H, EOS (end of study, Day 29)): 694.1 mOsm/kg | % of subjects with full 24 hour suppression of Uosm to 300 mOsm/kg or lower (% responders) (vasopressin V2 receptor; 200 mg twice daily): approximately 78% | Urine Osmolality Mean (vasopressin V2 receptor; 400 mg as 200 mg Q12H, Day 1 Hour 1): 237.4 mOsm/kg | Urine Osmolality Mean (vasopressin V2 receptor; 400 mg as 200 mg Q12H, Day 1 Hour 2): 74.5 mOsm/kg | Urine Osmolality Mean (vasopressin V2 receptor; 400 mg as 200 mg Q12H, Day 1 Hour 4): 91.0 mOsm/kg | Urine Osmolality Mean (vasopressin V2 receptor; 400 mg as 200 mg Q12H, Day 1 Hour 12): 294.1 mOsm/kg | Urine Osmolality Mean (vasopressin V2 receptor; 400 mg as 200 mg Q12H, Day 8 Hour 0): 231.0 mOsm/kg | Urine Osmolality Mean (vasopressin V2 receptor; 400 mg as 200 mg Q12H, Day 8 Hour 1): 106.9 mOsm/kg | Urine Osmolality Mean (vasopressin V2 receptor; 400 mg as 200 mg Q12H, Day 8 Hour 2): 82.3 mOsm/kg | Urine Osmolality Mean (vasopressin V2 receptor; 400 mg as 200 mg Q12H, Day 8 Hour 4): 139.1 mOsm/kg | Urine Osmolality Mean (vasopressin V2 receptor; 400 mg as 200 mg Q12H, Day 8 Hour 12): 219.5 mOsm/kg | Urine Osmolality Mean (vasopressin V2 receptor; 400 mg as 200 mg Q12H, Day 9 Hour 24 after dosing): 390.3 mOsm/kg | Urine Osmolality Mean (vasopressin V2 receptor; 400 mg as 200 mg Q12H, EOS (end of study, Day 29)): 704.8 mOsm/kg | time of mean maximal reduction of urine osmolality (vasopressin V2 receptor; after first dose on Day 1 and Day 8, regardless of the dose): 2 h | Urine Osmolality Mean (vasopressin V2 receptor; healthy subjects, 100 mg as 50 mg Q12H, Day 1 Hour 0 (baseline)): 587.8 mOsm/kg | Urine Osmolality Mean (vasopressin V2 receptor; healthy subjects, 200 mg as 100 mg Q12H, Day 1 Hour 0 (baseline)): 602.7 mOsm/kg | Urine Osmolality Mean (vasopressin V2 receptor; healthy subjects, 400 mg as 200 mg Q12H, Day 1 Hour 0 (baseline)): 600.1 mOsm/kg | logP (Measured Log P): 1 | Urine osmolality Change from baseline Mean (V2 receptor [2]; 0 to 2 hours postdose, ESRD): −109.0 mosmol/kg | Urine osmolality Observed Mean (V2 receptor [2]; 0 to 2 hours postdose, ESRD, single 100 mg oral dose): 216.5 mosmol/kg | Urine osmolality Change from baseline Mean (V2 receptor [2]; 0 to 2 hours postdose, Normal): −398.5 mosmol/kg | Urine osmolality Observed Mean (V2 receptor [2]; 0 to 2 hours postdose, Normal, single 100 mg oral dose): 132.6 mosmol/kg | Urine osmolality Change from baseline Mean (V2 receptor [2]; 2 to 4 hours postdose, ESRD): −108.7 mosmol/kg | Urine osmolality Observed Mean (V2 receptor [2]; 2 to 4 hours postdose, ESRD): 202.4 mosmol/kg | Urine osmolality Change from baseline Mean (V2 receptor [2]; 2 to 4 hours postdose, Normal): −412.6 mosmol/kg | Urine osmolality Observed Mean (V2 receptor [2]; 2 to 4 hours postdose, Normal): 109.9 mosmol/kg | Urine osmolality Change from baseline Mean (V2 receptor [2]; 4 to 8 hours postdose, ESRD): −118.3 mosmol/kg | Urine osmolality Observed Mean (V2 receptor [2]; 4 to 8 hours postdose, ESRD): 195.1 mosmol/kg | Urine osmolality Change from baseline Mean (V2 receptor [2]; 4 to 8 hours postdose, Normal): −258.3 mosmol/kg | Urine osmolality Observed Mean (V2 receptor [2]; 4 to 8 hours postdose, Normal): 272.8 mosmol/kg | effect on change from baseline in urine osmolality (V2 receptor [2]; ESRD group): markedly reduced | Urine osmolality Observed Mean (V2 receptor [2]; Predose, ESRD): 311.1 mosmol/kg | Urine osmolality Observed Mean (V2 receptor [2]; Predose, Normal): 514.7 mosmol/kg | vasopressin levels (V2 receptor [2]; both renal function groups): elevations of vasopressin levels | urine output (V2 receptor [2]; normal group): increased urine output | maintenance of urine osmolality below 300 mOsm/kg (V2 receptor [3]; 300 mg to 800 mg doses (FIG. 3)): up to 12 hours | suppression of Uosm to values <300 mOsm/kg (V2 receptor [3]; 800 mg dose only): up to 24 hours | time Uosm remained below iso-osmolar point (V2 receptor [3]; 100-mg dose): 4 h | time of minimal values of Uosm after drug administration (V2 receptor [3]; across all dose groups): ≤ 2 h | serum osmolality (V2 receptor [3]; all subjects given lixivaptan): significant dose-related increases | safety and tolerability (V2 receptor [3]; daily oral doses up to 800 mg, twice daily up to 400 mg, 14 consecutive days, healthy men): safe and well tolerated | minimal values of Uosm (V2 receptor [3]; doses of 25 mg and higher): < 300 mOsm/L | urine output, 0-to-24-hour collection interval (V2 receptor [3]; doses of 200 mg or larger, across 14 days, vs placebo): significantly greater urine output than placebo | urine output, first 4 hours after drug administration (V2 receptor [3]; single dose of 25 mg or higher, vs placebo): significantly greater urine output than placebo | Uvol (0-to-4-hours) (V2 receptor [3]; single doses of 25 mg and higher (day 1)): doubling
